Results from patent US9340590B2 (priority 2011, dated 2016).
Positions of bridges follow the written chain, without caps; N, C: chain ends. Residues, ends and D or L forms follow the SMILES beside them.

Key:
Assay in all cases: cell-based
[1] = molecular target: hNav1.5 (Homo sapiens, UniProt Q14524); settings: IonWorks Quattro, use-dependent block, hNav1.5; read-out: IWQ Use Nav1.5
[2] = molecular target: hNav1.7 (Homo sapiens, UniProt Q15858); assay type: cell-based; settings: IonWorks Quattro, use-dependent block, hNav1.7; read-out: IWQ Use Nav1.7
[3] = molecular target: hNav1.3 (Homo sapiens, UniProt Q9NY46); settings: IonWorks Quattro, use-dependent block, hNav1.3; read-out: IWQ Use Nav1.3
Sequence of hNav1.3 (Q9NY46 whole entry, looked up): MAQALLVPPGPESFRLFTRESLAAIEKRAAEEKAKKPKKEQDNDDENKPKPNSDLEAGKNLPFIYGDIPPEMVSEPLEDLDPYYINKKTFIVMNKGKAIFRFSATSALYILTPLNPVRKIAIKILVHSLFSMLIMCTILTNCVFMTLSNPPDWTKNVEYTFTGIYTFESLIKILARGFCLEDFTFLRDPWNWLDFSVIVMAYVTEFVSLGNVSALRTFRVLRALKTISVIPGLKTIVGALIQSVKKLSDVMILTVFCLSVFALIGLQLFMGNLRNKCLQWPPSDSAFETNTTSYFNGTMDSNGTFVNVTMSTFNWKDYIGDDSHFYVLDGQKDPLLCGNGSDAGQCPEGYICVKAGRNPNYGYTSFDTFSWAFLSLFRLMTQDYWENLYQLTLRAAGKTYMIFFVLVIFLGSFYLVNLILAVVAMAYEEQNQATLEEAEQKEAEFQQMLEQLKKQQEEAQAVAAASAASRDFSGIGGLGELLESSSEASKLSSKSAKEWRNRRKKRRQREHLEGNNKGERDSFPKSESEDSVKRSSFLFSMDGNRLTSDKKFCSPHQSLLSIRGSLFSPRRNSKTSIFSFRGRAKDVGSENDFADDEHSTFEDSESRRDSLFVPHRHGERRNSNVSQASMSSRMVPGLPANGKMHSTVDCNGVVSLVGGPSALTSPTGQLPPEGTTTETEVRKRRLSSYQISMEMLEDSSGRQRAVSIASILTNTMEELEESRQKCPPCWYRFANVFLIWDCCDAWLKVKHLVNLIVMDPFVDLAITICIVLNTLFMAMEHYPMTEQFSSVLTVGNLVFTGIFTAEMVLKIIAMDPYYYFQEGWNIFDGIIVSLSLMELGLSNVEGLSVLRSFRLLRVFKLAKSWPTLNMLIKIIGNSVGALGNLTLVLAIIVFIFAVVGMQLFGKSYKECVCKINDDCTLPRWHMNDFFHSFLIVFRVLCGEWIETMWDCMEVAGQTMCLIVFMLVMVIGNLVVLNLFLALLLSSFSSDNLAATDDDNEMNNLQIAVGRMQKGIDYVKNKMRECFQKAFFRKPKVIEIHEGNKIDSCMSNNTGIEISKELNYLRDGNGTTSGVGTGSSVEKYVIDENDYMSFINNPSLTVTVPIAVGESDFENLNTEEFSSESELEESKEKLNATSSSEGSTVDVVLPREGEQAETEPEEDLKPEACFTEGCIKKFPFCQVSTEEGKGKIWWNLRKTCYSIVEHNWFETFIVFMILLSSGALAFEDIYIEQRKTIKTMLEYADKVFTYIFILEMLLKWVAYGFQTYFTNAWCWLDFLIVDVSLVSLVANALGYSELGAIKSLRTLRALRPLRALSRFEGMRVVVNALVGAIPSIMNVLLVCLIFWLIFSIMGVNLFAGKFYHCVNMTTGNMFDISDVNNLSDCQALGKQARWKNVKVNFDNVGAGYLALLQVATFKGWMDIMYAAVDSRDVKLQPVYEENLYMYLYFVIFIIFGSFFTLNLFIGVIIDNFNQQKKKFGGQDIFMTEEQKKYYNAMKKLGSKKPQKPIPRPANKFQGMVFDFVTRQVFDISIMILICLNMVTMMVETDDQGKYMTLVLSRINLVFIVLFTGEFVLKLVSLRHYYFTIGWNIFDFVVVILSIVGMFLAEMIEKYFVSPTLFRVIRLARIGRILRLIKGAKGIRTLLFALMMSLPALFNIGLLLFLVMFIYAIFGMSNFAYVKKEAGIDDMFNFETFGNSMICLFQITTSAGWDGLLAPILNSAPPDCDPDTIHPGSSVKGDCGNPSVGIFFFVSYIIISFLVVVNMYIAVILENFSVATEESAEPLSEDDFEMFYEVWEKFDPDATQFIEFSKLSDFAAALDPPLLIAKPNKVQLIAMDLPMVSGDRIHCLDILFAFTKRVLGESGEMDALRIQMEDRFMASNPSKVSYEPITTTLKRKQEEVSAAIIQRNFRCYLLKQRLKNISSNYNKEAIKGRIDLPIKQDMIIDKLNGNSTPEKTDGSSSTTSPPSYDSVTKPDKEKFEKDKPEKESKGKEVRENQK

Sequence of hNav1.5 (Q14524 whole entry, looked up): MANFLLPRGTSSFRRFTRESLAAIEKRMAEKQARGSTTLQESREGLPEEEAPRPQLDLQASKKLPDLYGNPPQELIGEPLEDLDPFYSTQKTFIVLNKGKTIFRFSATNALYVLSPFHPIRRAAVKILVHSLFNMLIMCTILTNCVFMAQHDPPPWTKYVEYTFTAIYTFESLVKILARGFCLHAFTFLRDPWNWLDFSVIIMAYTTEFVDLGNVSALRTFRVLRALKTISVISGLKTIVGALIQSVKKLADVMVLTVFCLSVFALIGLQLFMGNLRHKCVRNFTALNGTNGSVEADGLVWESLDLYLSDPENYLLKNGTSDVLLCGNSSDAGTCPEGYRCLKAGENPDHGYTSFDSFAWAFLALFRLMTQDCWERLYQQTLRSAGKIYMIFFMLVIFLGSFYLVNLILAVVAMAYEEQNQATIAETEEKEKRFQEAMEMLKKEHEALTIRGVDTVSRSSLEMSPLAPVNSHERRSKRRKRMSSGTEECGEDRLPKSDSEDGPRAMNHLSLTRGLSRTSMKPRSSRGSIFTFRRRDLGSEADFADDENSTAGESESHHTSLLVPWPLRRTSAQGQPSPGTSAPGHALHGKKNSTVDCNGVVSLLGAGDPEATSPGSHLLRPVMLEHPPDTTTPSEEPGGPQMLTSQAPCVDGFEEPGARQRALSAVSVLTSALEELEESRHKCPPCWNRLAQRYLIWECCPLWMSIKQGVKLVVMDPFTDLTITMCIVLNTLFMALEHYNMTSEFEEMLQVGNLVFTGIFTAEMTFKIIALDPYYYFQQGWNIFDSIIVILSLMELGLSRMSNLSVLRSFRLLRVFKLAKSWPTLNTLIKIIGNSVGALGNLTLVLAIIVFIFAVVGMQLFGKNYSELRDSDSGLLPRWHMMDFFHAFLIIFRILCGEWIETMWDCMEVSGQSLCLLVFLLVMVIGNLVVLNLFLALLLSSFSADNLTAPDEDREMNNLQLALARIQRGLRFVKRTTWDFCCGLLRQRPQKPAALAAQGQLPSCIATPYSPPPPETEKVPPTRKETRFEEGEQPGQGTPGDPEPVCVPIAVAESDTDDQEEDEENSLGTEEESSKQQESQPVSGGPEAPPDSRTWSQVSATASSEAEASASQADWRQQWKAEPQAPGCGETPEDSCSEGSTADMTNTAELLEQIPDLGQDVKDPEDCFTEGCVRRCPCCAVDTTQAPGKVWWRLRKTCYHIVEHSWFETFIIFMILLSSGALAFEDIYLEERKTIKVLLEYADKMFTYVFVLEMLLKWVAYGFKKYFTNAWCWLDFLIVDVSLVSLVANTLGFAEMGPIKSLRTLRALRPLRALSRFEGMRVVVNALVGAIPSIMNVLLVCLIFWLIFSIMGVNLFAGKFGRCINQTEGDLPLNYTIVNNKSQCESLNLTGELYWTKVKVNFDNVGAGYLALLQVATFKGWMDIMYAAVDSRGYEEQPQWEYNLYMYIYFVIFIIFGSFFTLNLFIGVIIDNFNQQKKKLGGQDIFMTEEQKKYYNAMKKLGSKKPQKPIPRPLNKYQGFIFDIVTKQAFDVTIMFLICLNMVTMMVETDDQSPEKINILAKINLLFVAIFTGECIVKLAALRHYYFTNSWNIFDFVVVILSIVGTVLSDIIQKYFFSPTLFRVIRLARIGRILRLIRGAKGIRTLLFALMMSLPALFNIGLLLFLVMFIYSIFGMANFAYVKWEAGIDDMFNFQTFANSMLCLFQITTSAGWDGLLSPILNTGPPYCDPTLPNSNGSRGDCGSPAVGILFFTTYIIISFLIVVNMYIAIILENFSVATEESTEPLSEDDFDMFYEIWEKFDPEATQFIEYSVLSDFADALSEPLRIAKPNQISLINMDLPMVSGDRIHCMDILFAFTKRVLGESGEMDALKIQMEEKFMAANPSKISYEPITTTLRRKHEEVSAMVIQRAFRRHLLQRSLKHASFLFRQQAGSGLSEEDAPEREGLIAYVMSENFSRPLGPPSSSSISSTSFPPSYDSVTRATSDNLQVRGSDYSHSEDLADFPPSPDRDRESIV

Row | Structure (SMILES) | IC50 [1] [µM] | IC50 [2] [µM] | IC50 [3] [nM]
1 | CC[C@H](C)[C@@H]1NC(=O)[C@@H]2CSSC[C@@H]3NC(=O)[C@H](C(C)C)NC(=O)[C@H](CC(C)C)NC(=O)[C@H](CC(N)=O)NC(=O)[C@@H]4CCCN4C(=O)[C@H](CCCNC(=N)N)NC(=O)[C@H](CSSC[C@H](NC(=O)[C@@H](N)CC(=O)O)C(=O)N[C@@H](CC(C)C)C(=O)NCC(=O)N[C@@H](C)C(=O)N[C@@H](Cc4ccccc4)C(=O)N[C@@H](CCCNC(=N)N)C(=O)N[C@@H](CCCCN)C(=O)N2)NC(=O)[C@H](CSSC[C@@H](C(=O)N[C@@H](CCCCN)C(=O)N[C@@H](Cc2ccc(O)cc2)C(=O)N[C@H](C(=O)N[C@@H](Cc2ccccc2)C(=O)O)C(C)C)NC(=O)[C@H](Cc2c[nH]c4ccccc24)NC(=O)[C@H](CC(N)=O)NC(=O)[C@H](Cc2c[nH]cn2)NC(=O)[C@H]([C@@H](C)O)NC(=O)[C@H](CCCNC(=N)N)NC(=O)[C@H](CO)NC3=O)NC(=O)[C@H](CCCCN)NC(=O)[C@H](CC(=O)O)NC(=O)[C@H](CC(N)=O)NC(=O)[C@H](CC(=O)O)NC(=O)[C@@H]2CCCN2C1=O [compound 832] (H-DCLGAFRKCIPDNDKCCRPNLVCSRTHNWCKYVF-OH; disulfide 2-17, 9-23, 16-30) | > 5 | > 5 | 4600
2 | CC[C@H](C)[C@@H]1NC(=O)[C@@H]2CSSC[C@@H]3NC(=O)[C@H](C(C)C)NC(=O)[C@H](CC(C)C)NC(=O)[C@H](CC(N)=O)NC(=O)[C@@H]4CCCN4C(=O)[C@H](CCCNC(=N)N)NC(=O)[C@H](CSSC[C@H](NC(=O)[C@@H](N)CC(=O)O)C(=O)N[C@@H](CC(C)C)C(=O)NCC(=O)N[C@@H](C)C(=O)N[C@@H](Cc4ccccc4)C(=O)N[C@@H](CCCNC(=N)N)C(=O)N[C@@H](CCCCN)C(=O)N2)NC(=O)[C@H](CSSC[C@@H](C(=O)N[C@@H](CCCCN)C(=O)N[C@@H](Cc2ccc(O)cc2)C(=O)N[C@H](C(=O)N[C@@H](Cc2ccccc2)C(=O)O)C(C)C)NC(=O)[C@H](Cc2c[nH]c4ccccc24)NC(=O)[C@@H]2CCCN2C(=O)[C@H](Cc2c[nH]cn2)NC(=O)[C@H]([C@@H](C)O)NC(=O)[C@H](CCCNC(=N)N)NC(=O)[C@H](CO)NC3=O)NC(=O)[C@H](CCCCN)NC(=O)[C@H](CC(=O)O)NC(=O)[C@H](CC(N)=O)NC(=O)[C@H](CC(=O)O)NC(=O)[C@@H]2CCCN2C1=O [compound 833] (H-DCLGAFRKCIPDNDKCCRPNLVCSRTHPWCKYVF-OH; disulfide 2-17, 9-23, 16-30) | > 5 | > 5 | > 5000
3 | CC[C@H](C)[C@@H]1NC(=O)[C@@H]2CSSC[C@@H]3NC(=O)[C@H](C(C)C)NC(=O)[C@H](CC(C)C)NC(=O)[C@H](CC(N)=O)NC(=O)[C@@H]4CCCN4C(=O)[C@H](CCCNC(=N)N)NC(=O)[C@H](CSSC[C@H](NC(=O)[C@@H](N)CC(=O)O)C(=O)N[C@@H](CC(C)C)C(=O)NCC(=O)N[C@@H](C)C(=O)N[C@@H](Cc4ccccc4)C(=O)N[C@@H](CCCNC(=N)N)C(=O)N[C@@H](CCCCN)C(=O)N2)NC(=O)[C@H](CSSC[C@@H](C(=O)N[C@@H](CCCCN)C(=O)N[C@@H](Cc2ccc(O)cc2)C(=O)N[C@H](C(=O)N[C@@H](Cc2ccccc2)C(=O)O)C(C)C)NC(=O)[C@H](Cc2c[nH]c4ccccc24)NC(=O)[C@H](CCC(N)=O)NC(=O)[C@H](Cc2c[nH]cn2)NC(=O)[C@H]([C@@H](C)O)NC(=O)[C@H](CCCNC(=N)N)NC(=O)[C@H](CO)NC3=O)NC(=O)[C@H](CCCCN)NC(=O)[C@H](CC(=O)O)NC(=O)[C@H](CC(N)=O)NC(=O)[C@H](CC(=O)O)NC(=O)[C@@H]2CCCN2C1=O [compound 834] (H-DCLGAFRKCIPDNDKCCRPNLVCSRTHQWCKYVF-OH; disulfide 2-17, 9-23, 16-30) | > 5 | > 5 | 3900
4 | CC[C@H](C)[C@@H]1NC(=O)[C@@H]2CSSC[C@@H]3NC(=O)[C@H](C(C)C)NC(=O)[C@H](CC(C)C)NC(=O)[C@H](CC(N)=O)NC(=O)[C@@H]4CCCN4C(=O)[C@H](CCCNC(=N)N)NC(=O)[C@H](CSSC[C@H](NC(=O)[C@@H](N)CC(=O)O)C(=O)N[C@@H](CC(C)C)C(=O)NCC(=O)N[C@@H](C)C(=O)N[C@@H](Cc4ccccc4)C(=O)N[C@@H](CCCNC(=N)N)C(=O)N[C@@H](CCCCN)C(=O)N2)NC(=O)[C@H](CSSC[C@@H](C(=O)N[C@@H](CCCCN)C(=O)N[C@@H](Cc2ccc(O)cc2)C(=O)N[C@H](C(=O)N[C@@H](Cc2ccccc2)C(=O)O)C(C)C)NC(=O)[C@H](Cc2c[nH]c4ccccc24)NC(=O)[C@H](CO)NC(=O)[C@H](Cc2c[nH]cn2)NC(=O)[C@H]([C@@H](C)O)NC(=O)[C@H](CCCNC(=N)N)NC(=O)[C@H](CO)NC3=O)NC(=O)[C@H](CCCCN)NC(=O)[C@H](CC(=O)O)NC(=O)[C@H](CC(N)=O)NC(=O)[C@H](CC(=O)O)NC(=O)[C@@H]2CCCN2C1=O [compound 835] (H-DCLGAFRKCIPDNDKCCRPNLVCSRTHSWCKYVF-OH; disulfide 2-17, 9-23, 16-30) | > 5 | > 5 | > 5000
5 | CC[C@H](C)[C@@H]1NC(=O)[C@@H]2CSSC[C@@H]3NC(=O)[C@H](C(C)C)NC(=O)[C@H](CC(C)C)NC(=O)[C@H](CC(N)=O)NC(=O)[C@@H]4CCCN4C(=O)[C@H](CCCNC(=N)N)NC(=O)[C@H](CSSC[C@H](NC(=O)[C@@H](N)CC(=O)O)C(=O)N[C@@H](CC(C)C)C(=O)NCC(=O)N[C@@H](C)C(=O)N[C@@H](Cc4ccccc4)C(=O)N[C@@H](CCCNC(=N)N)C(=O)N[C@@H](CCCCN)C(=O)N2)NC(=O)[C@H](CSSC[C@@H](C(=O)N[C@@H](CCCCN)C(=O)N[C@@H](Cc2ccc(O)cc2)C(=O)N[C@H](C(=O)N[C@@H](Cc2ccccc2)C(=O)O)C(C)C)NC(=O)[C@H](Cc2c[nH]c4ccccc24)NC(=O)[C@H](CCCNC(=N)N)NC(=O)[C@H](Cc2c[nH]cn2)NC(=O)[C@H]([C@@H](C)O)NC(=O)[C@H](CCCNC(=N)N)NC(=O)[C@H](CO)NC3=O)NC(=O)[C@H](CCCCN)NC(=O)[C@H](CC(=O)O)NC(=O)[C@H](C)NC(=O)[C@H](CC(=O)O)NC(=O)[C@@H]2CCCN2C1=O [compound 836] (H-DCLGAFRKCIPDADKCCRPNLVCSRTHRWCKYVF-OH; disulfide 2-17, 9-23, 16-30) | > 5 | 4.1 | 1300
6 | CC[C@H](C)[C@@H]1NC(=O)[C@@H]2CSSC[C@@H]3NC(=O)[C@H](C(C)C)NC(=O)[C@H](CC(C)C)NC(=O)[C@H](CC(N)=O)NC(=O)[C@@H]4CCCN4C(=O)[C@H](CCCNC(=N)N)NC(=O)[C@H](CSSC[C@H](NC(=O)[C@@H](N)CC(=O)O)C(=O)N[C@@H](CC(C)C)C(=O)NCC(=O)N[C@@H](C)C(=O)N[C@@H](Cc4ccccc4)C(=O)N[C@@H](CCCNC(=N)N)C(=O)N[C@@H](CCCCN)C(=O)N2)NC(=O)[C@H](CSSC[C@@H](C(=O)N[C@@H](CCCCN)C(=O)N[C@@H](Cc2ccc(O)cc2)C(=O)N[C@H](C(=O)N[C@@H](Cc2ccccc2)C(=O)O)C(C)C)NC(=O)[C@H](Cc2c[nH]c4ccccc24)NC(=O)[C@H](CCCNC(=N)N)NC(=O)[C@H](Cc2c[nH]cn2)NC(=O)[C@H]([C@@H](C)O)NC(=O)[C@H](CCCNC(=N)N)NC(=O)[C@H](CO)NC3=O)NC(=O)[C@H](CCCCN)NC(=O)[C@H](CC(=O)O)NC(=O)[C@H](CC(=O)O)NC(=O)[C@H](CC(=O)O)NC(=O)[C@@H]2CCCN2C1=O [compound 837] | > 5 | > 5 | 2300
7 | CC[C@H](C)[C@@H]1NC(=O)[C@@H]2CSSC[C@@H]3NC(=O)[C@H](C(C)C)NC(=O)[C@H](CC(C)C)NC(=O)[C@H](CC(N)=O)NC(=O)[C@@H]4CCCN4C(=O)[C@H](CCCNC(=N)N)NC(=O)[C@H](CSSC[C@H](NC(=O)[C@@H](N)CC(=O)O)C(=O)N[C@@H](CC(C)C)C(=O)NCC(=O)N[C@@H](C)C(=O)N[C@@H](Cc4ccccc4)C(=O)N[C@@H](CCCNC(=N)N)C(=O)N[C@@H](CCCCN)C(=O)N2)NC(=O)[C@H](CSSC[C@@H](C(=O)N[C@@H](CCCCN)C(=O)N[C@@H](Cc2ccc(O)cc2)C(=O)N[C@H](C(=O)N[C@@H](Cc2ccccc2)C(=O)O)C(C)C)NC(=O)[C@H](Cc2c[nH]c4ccccc24)NC(=O)[C@H](CCCNC(=N)N)NC(=O)[C@H](Cc2c[nH]cn2)NC(=O)[C@H]([C@@H](C)O)NC(=O)[C@H](CCCNC(=N)N)NC(=O)[C@H](CO)NC3=O)NC(=O)[C@H](CCCCN)NC(=O)[C@H](CC(=O)O)NC(=O)[C@H](CCC(=O)O)NC(=O)[C@H](CC(=O)O)NC(=O)[C@@H]2CCCN2C1=O [compound 838] | > 5 | > 5 | 1900
8 | CC[C@H](C)[C@@H]1NC(=O)[C@@H]2CSSC[C@@H]3NC(=O)[C@H](C(C)C)NC(=O)[C@H](CC(C)C)NC(=O)[C@H](CC(N)=O)NC(=O)[C@@H]4CCCN4C(=O)[C@H](CCCNC(=N)N)NC(=O)[C@H](CSSC[C@H](NC(=O)[C@@H](N)CC(=O)O)C(=O)N[C@@H](CC(C)C)C(=O)NCC(=O)N[C@@H](C)C(=O)N[C@@H](Cc4ccccc4)C(=O)N[C@@H](CCCNC(=N)N)C(=O)N[C@@H](CCCCN)C(=O)N2)NC(=O)[C@H](CSSC[C@@H](C(=O)N[C@@H](CCCCN)C(=O)N[C@@H](Cc2ccc(O)cc2)C(=O)N[C@H](C(=O)N[C@@H](Cc2ccccc2)C(=O)O)C(C)C)NC(=O)[C@H](Cc2c[nH]c4ccccc24)NC(=O)[C@H](CCCNC(=N)N)NC(=O)[C@H](Cc2c[nH]cn2)NC(=O)[C@H]([C@@H](C)O)NC(=O)[C@H](CCCNC(=N)N)NC(=O)[C@H](CO)NC3=O)NC(=O)[C@H](CCCCN)NC(=O)[C@H](CC(=O)O)NC(=O)[C@H](Cc2ccccc2)NC(=O)[C@H](CC(=O)O)NC(=O)[C@@H]2CCCN2C1=O [compound 839] | > 5 | > 5 | 1200
